Assay results from ChEMBL document CHEMBL1121747, “Side-chain effects on phenothiazine cation radical reactions” (J Med Chem, 1981).

Assay: Dissociation constant was reported
Assay type: physicochemical

pKa: 9.1
Structure (SMILES): CN(C)CCN1c2ccccc2Sc2ccc(Cl)cc21 [CHOLRPHENETHAZINE]
